Assays:
[1] = Process stabilization of polypropylene at 525° F.: melt flow rate (ASTM D1238); details: 0.075% by weight of each additive, 0.075% calcium stearate, 525° F.
Method: (§1) The test additives are incorporated into the polypropylene by dry blending or, when the additive is a liquid, using a minimum amount of methylene chloride solvent. The solvent is then removed by evaporation under reduced pressure.
After each of the first, third and fifth extrusions, the melt flow rate (in grams/10 minutes) is determined by ASTM method D1238 on the pellets obtained from the extruder.

[2] = Process stabilization of polypropylene: yellowness index of plaques (ASTM D1925); details: 0.075% by weight of each additive, 0.075% calcium stearate
Excerpt: as §1

[3] = Solubility in lubricating oil (Mobil BB oil); type: physicochemical; details: 1% by weight in Mobil BB oil (Exp. 4f), at 60° C. per footnote
[4] = Apparent bulk density (ASTM D-1895); type: physicochemical
Method: The apparent bulk density of the solids is measured according to the method of ASTM D-1895 (79). A higher apparent bulk density allows for a greater mass per unit volume which affords advantages in packaging of the solid product, such as lower costs for the packaging material, less storage space is required, etc.

[5] = Solubility in lubricating oil (Mobil BB oil); type: physicochemical
Method: The following experiments are performed to determine the solubility of amorphous compound A and crystalline compound B in Mobil BB oil. Both compounds have the same uniform particle sizes (40-70 micron).
Compound A=amorphous form of 2,2',2"-nitrilo-[triethyl-tris-(3,3',5,5'-tetra-tert-butyl-1,1'-biphenyl-2,2'-diyl) phosphite], prepared in accordance with instant Example 1.
Compound B=crystalline form of 2,2',2"-nitrilo[triethyl-tris-(3,3',5,5'-tetra-tert-butyl-1,1'-biphenyl-2,2'-diyl) phosphite], prepared in accordance with Example 4 of U.S. Pat. No. 4,318,845.
Into a vial of 980 mg. of Mobil BB oil is added 20 mg. of compound A at ambient temperature. For the first 30 minutes, the vial is shaken every 10 minutes. After the initial 30 minutes, the vial is left standing.
Into a vial of 980 mg. of Mobil BB oil is added 20 mg. of compound B at ambient temperature. For the first 30 minutes, the vial is shaken every 10 minutes. After the initial 30 minutes, the vial is left standing.
Into a vial of 980 mg. of Mobil BB oil is added 20 mg. of compound A at ambient temperature. The vial is then placed into a 60° C. oil bath.
Into a vial of 980 mg. of Mobil BB oil is added 20 mg. of compound B at ambient temperature. The vial is then placed into a 60° C. oil bath.
Into a vial of 990 mg. of Mobil BB oil is added 10 mg. of compound A at ambient temperature. […] is shaken every 10 minutes. After the initial 30 minutes, the vial is left standing.
Into a vial of 990 mg. of Mobil BB oil is added 10 mg. of compound B at ambient temperature. […] is shaken every 10 minutes. After the initial 30 minutes, the vial is left standing.

[6] = Solubility in LLDPE film by diffusion-in, X-ray fluorescence; type: physicochemical
Method: Experiments are carried out to determine the solubility of the instant compound into linear low density polyethylene (LLDPE) films at 20° C., 40° C. and 60° C. by diffusion-in of a relatively homogeneous particle size (<70 microns) of the test sample suspended in silicon oil.
Each sample is carefully ground with a mortar and pestle and the particle size below 70 microns is separated by sieving with a 200 mesh screen. The powder is then suspended in silicon oil (polydimethylsiloxane, L-45, Union Carbide Chemicals) at a concentration of approximately 38% (wt/wt). A few drops of this suspension is placed on a 10 mil (0.254 mm) thick, 2"×2" (5.08 cm×5.08 cm) compression molded film and a second film of the same dimension is placed on top. The films are gently pressed together so that the suspension forms a thin liquid layer between the polymer films. Excess suspension is removed and the procedure is repeated till a stack of eight films (six films for evaluation) are prepared. The stack is then placed between two 2.5"×2.5" (6.35 cm×6.35 cm) ceramic tiles and wrapped in aluminum foil and held together with a G-clamp. Each stack is aged at 20° C., 40° C. and 60° C. under a nitrogen atmosphere. At specified intervals, a single film is removed from the stack and the excess suspension is washed from the film with hexane. The film is then analyzed by X-ray fluorescence for total phosphorus content. LLDPE containing 0, 1000 ppm and 2000 ppm of the test compound are used as standard controls for this X-ray fluorescence method.

SMILES: CC(C)(C)c1cc(CCC(=O)OCC(COC(=O)CCc2cc(C(C)(C)C)c(O)c(C(C)(C)C)c2)(COC(=O)CCc2cc(C(C)(C)C)c(O)c(C(C)(C)C)c2)COC(=O)CCc2cc(C(C)(C)C)c(O)c(C(C)(C)C)c2)cc(C(C)(C)C)c1O [Base, neopentanetetrayl tetrakis(3,5di-tert-butyl-4-hydroxyhydrocinnamate)]
- Melt Flow after Extrusion 5 ([1]; after fifth extrusion): 17.5 grams/10 minutes
- Melt Flow after Extrusion 1 ([1]; after first extrusion): 8.1 grams/10 minutes
- Melt Flow after Extrusion 3 ([1]; after third extrusion): 12.9 grams/10 minutes
- Yellowness Index (YI) Values after Extrusion 5 ([2]; after fifth extrusion): 11.0
- Yellowness Index (YI) Values after Extrusion 1 ([2]; after first extrusion): 7.6
- Yellowness Index (YI) Values after Extrusion 3 ([2]; after third extrusion): 9.0

SMILES: CC(C)(C)c1cc(C(C)(C)C)c2op(OCCN(CCOp3oc4c(C(C)(C)C)cc(C(C)(C)C)cc4c4cc(C(C)(C)C)cc(C(C)(C)C)c4o3)CCOp3oc4c(C(C)(C)C)cc(C(C)(C)C)cc4c4cc(C(C)(C)C)cc(C(C)(C)C)c4o3)oc3c(C(C)(C)C)cc(C(C)(C)C)cc3c2c1 [Example 4 of U.S. 4,318,845, 2,2',2"-nitrilo[triethyl-tris-(3,3',5,5'-tetra-tert-butyl-1,1'-biphenyl-2,2'-diyl)phosphite], reference compound]
- Time to clear solution [3]: 5 h
- Bulk Density [4]: 0.44 g/mL
- Observation ([5]; 1% by weight in Mobil BB oil, RT, 1.5 hrs., listed as B): Cloudy
- Observation ([5]; 1% by weight in Mobil BB oil, RT, 1.5 hrs., listed as compound B): cloudy suspension
- Time to clear solution ([5]; 1% by weight in Mobil BB oil, RT, listed as compound B): 16 h
- Observation ([5]; 2% by weight in Mobil BB oil, 60° C. oil bath, 10 min., listed as B): Cloudy
- Observation ([5]; 2% by weight in Mobil BB oil, 60° C. oil bath, 10 min., listed as compound B): cloudy suspension
- Time to clear solution ([5]; 2% by weight in Mobil BB oil, 60° C. oil bath, listed as B): 5 h
- Time to clear solution ([5]; 2% by weight in Mobil BB oil, 60° C. oil bath, listed as compound B): 16 h
- Observation ([5]; 2% by weight in Mobil BB oil, RT, 2.5 hrs., listed as B): Cloudy
- Observation ([5]; 2% by weight in Mobil BB oil, RT, 2.5 hrs., listed as compound B): cloudy suspension
- Time to clear solution ([5]; 2% by weight in Mobil BB oil, RT, listed as B): 16 h
- Time to clear solution ([5]; 2% by weight in Mobil BB oil, RT, listed as compound B): 16 h
- Solubility of Compound in LLDPE at 20° C. ([6]; interval 15 (time unit not given)): 1500 ppm
- Solubility of Compound in LLDPE at 20° C. ([6]; interval 28 (time unit not given)): 1000 ppm
- Solubility of Compound in LLDPE at 20° C. ([6]; interval 35 (time unit not given)): 1200 ppm
- Solubility of Compound in LLDPE at 20° C. ([6]; interval 44 (time unit not given)): 1200 ppm
- Solubility of Compound in LLDPE at 40° C. ([6]; interval 10 (time unit not given)): 500 ppm
- Solubility of Compound in LLDPE at 40° C. ([6]; interval 17 (time unit not given)): 1750 ppm
- Solubility of Compound in LLDPE at 40° C. ([6]; interval 25 (time unit not given)): 750 ppm
- Solubility of Compound in LLDPE at 40° C. ([6]; interval 34 (time unit not given)): 400 ppm
- Solubility of Compound in LLDPE at 40° C. ([6]; interval 40 (time unit not given)): 600 ppm
- Solubility of Compound in LLDPE at 40° C. ([6]; interval 47 (time unit not given)): 1400 ppm
- Solubility of Compound in LLDPE at 20° C. ([6]; third section, interval 6 (time unit not given)): 1000 ppm
- Solubility of Compound in LLDPE at 20° C. ([6]; third section, interval 14 (time unit not given)): 800 ppm
- Solubility of Compound in LLDPE at 20° C. ([6]; third section, interval 22 (time unit not given)): 1000 ppm
- Solubility of Compound in LLDPE at 20° C. ([6]; third section, interval 28 (time unit not given)): 900 ppm
- Solubility of Compound in LLDPE at 20° C. ([6]; third section, interval 37 (time unit not given)): 900 ppm

— patent publication US5373040A, “Amorphous solid modification of 2,2',2"-nitrilo[triethyl-tris-(3,3',5,5'-tetra-tert-butyl-1,1'-biphenyl- 2,2'-diyl)phosphite]” (Ciba-Geigy Corporation, priority 1993, dated 1994)
